Data from US20050014847A1, “Ambroxol for the treatment of chronic nociceptive pain” (Boehringer Ingelheim International GmbH, priority 2003, published 2005).
pIC50: −log10 of the molar value.

What was measured:
human GluR1/2 receptors = molecular target: T1, human GluR1/2 receptors (Homo sapiens, UniProt P42261+P42262); assay: Patch-Clamp inhibition of glutamate-induced membrane currents in HEK 293 cells; type: cell-based; conditions: HEK 293 cells expressing recombinant human GluR1/2, 1 mM glutamate for 1 s, holding potential −80 mV
T1 construct: expressed in transfected cells; host or cells: HEK 293
T1 sequence (P42261 19-906): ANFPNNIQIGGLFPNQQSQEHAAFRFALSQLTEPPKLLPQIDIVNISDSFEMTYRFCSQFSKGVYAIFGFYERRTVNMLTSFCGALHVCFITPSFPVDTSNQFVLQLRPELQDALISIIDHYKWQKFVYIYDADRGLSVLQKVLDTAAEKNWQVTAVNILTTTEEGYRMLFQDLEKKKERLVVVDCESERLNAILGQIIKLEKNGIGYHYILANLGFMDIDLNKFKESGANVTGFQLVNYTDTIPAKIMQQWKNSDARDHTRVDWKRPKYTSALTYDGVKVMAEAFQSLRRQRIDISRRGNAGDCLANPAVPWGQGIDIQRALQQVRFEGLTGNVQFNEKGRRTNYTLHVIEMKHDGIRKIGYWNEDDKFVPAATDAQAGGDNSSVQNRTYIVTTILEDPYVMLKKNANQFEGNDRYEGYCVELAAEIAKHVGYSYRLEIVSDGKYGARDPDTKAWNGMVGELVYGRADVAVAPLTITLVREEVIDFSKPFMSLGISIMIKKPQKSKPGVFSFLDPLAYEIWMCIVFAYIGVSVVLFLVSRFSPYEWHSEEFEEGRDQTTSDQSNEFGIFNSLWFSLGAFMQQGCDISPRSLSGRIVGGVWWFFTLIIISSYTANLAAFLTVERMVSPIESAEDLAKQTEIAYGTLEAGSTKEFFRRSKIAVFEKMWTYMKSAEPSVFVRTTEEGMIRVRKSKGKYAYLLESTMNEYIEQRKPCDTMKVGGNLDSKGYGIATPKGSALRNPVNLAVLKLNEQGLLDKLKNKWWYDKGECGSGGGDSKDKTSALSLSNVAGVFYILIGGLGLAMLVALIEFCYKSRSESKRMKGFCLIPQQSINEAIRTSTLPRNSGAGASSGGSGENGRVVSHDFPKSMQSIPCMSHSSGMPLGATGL
T1 sequence (P42262 22-883 limits assumed): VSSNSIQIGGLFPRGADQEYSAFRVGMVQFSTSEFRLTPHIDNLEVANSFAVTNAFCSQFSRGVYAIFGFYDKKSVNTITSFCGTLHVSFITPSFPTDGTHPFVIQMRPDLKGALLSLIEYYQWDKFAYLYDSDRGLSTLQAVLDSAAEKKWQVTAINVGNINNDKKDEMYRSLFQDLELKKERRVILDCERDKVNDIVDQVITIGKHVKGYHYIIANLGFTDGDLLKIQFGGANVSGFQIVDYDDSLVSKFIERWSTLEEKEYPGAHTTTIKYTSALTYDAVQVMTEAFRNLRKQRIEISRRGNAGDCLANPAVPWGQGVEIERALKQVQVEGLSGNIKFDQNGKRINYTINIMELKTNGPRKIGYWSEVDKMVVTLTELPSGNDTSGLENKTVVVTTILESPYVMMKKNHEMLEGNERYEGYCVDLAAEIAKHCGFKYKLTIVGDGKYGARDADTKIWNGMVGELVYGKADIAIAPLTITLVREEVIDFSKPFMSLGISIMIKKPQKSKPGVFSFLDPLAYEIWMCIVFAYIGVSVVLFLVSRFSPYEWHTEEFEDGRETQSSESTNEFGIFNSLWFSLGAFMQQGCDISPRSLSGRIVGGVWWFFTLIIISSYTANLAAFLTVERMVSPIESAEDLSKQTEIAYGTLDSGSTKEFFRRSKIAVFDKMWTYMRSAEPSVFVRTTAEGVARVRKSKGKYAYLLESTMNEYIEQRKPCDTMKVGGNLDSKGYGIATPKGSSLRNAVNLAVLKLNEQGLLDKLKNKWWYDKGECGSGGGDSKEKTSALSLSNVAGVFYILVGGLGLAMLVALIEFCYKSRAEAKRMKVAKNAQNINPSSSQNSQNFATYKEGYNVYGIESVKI
Method: Ionotropic glutamate receptors of the AMPA sub-type are also essential for the excitatory neurotransmission. […] HEK 293 cells which expressed functionally recombinant human GluR1/2 receptors were electrophysiologically investigated by the Patch-Clamp method ([…]). The administration of 1 mM glutamate (for 1 s at a holding potential of −80 mV) induced membrane currents which were inhibited by the joint administration of ambroxol.

[1] = system: Tetrodotoxin-sensitive currents (sodium channels); type: cell-based, rat; conditions: read-out: IC50 tetrodotoxin-sensitive currents; neuron cultures from posterior root ganglia of adult rats

SMILES: Nc1c(Br)cc(Br)cc1CN[C@H]1CC[C@H](O)CC1 [ambroxol, trans-4-(2-amino-3,5-dibromobenzylamino)cyclohexanol]
- concentrations inhibiting glutamate-induced membrane currents (human GluR1/2 receptors): 30 to 1000 µM
- pIC50 [1]: < 4.00
